In paper PMC12775434, “Ultra-large virtual screening unveils potent agonists of the neuromodulatory orphan receptor GPR139” (Nature Communications, 2025):
“And” between values parts separate entries of the source, which are not always exact repeats. Identical values can stand only once. Like-named read-outs stand apart in the source and are kept apart here. Values belong to the compound of their own block, whether it stands above or below them.

What was measured:
Type in all cases: cell-based
[1] = biological target: T1, human muscarinic acetylcholine M1 receptor (M1R) (Homo sapiens, UniProt P11229); experiment: Ca2+ mobilization counter-screen in M1R-CHOk1 cells
T1 sequence (P11229 1-460): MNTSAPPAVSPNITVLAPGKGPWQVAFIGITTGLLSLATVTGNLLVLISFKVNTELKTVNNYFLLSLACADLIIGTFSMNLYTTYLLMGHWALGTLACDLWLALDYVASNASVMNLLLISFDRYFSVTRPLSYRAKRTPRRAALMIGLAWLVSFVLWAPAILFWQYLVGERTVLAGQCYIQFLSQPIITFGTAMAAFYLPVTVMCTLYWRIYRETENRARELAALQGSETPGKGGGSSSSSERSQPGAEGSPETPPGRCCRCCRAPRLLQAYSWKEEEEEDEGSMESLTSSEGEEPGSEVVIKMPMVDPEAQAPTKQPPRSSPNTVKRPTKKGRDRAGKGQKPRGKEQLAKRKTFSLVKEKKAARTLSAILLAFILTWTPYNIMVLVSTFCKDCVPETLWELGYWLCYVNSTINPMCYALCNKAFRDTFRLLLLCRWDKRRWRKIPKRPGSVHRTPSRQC
In short: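 Intracellular calcium is tracked by Fluo-4 fluorescence at 37 °C in M1R-CHOk1 cells, with compounds dispensed automatically once baseline is taken. Buffer is HBSS with 20 mM HEPES, pH 7.4, plus 2.5 mM probenecid.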

[2] = biological target: T2, GPR139 (Homo sapiens, UniProt Q6DWJ6); experiment: Ca2+ mobilization assay, agonist mode, stable GPR139-CHOk1 cell line; conditions: for Emax: normalized to Lundbeck Cmp 1a, read-out: Emax (%) Ca2+
T2 sequence (Q6DWJ6 1-353): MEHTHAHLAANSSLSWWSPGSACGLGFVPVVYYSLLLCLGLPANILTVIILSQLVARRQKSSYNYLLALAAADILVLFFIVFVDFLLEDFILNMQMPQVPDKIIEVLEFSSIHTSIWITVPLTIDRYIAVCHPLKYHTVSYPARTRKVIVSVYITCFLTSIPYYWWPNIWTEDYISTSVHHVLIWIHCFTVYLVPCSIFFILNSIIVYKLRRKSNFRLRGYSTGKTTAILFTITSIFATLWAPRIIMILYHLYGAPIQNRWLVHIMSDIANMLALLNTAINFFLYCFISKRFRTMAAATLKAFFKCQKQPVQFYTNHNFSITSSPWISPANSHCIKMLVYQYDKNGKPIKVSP
In short: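 Agonist activity of compounds is assessed in stably transfected CHO-K1 cells using the calcium dye Fluo-4 at 37 °C in HEPES-buffered HBSS (pH 7.4). Efficacy is expressed relative to the reference agonist Lundbeck Cmp 1a, set as 100%.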

[3] = biological target: T2, GPR139; experiment: Ca2+ mobilization assay, antagonist mode (EC80 800 nM Lundbeck Cmp 1a after 20 min preincubation), GPR139-CHOk1
In short: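 Fluo-4-loaded GPR139-CHOk1 cells in HEPES-buffered HBSS (pH 7.4, 2.5 mM probenecid) given test compounds at 10 µM, then after 20 min challenged with 800 nM Lundbeck Cmp 1a (EC80). Calcium fluorescence read at 37 °C, 485/525 nm.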

[4] = Supplementary Table 2, mean ± SEM

Compound: Cc1cc(-c2nc(CC(=O)NC(C)c3ccccc3)no2)sc1C (stereo not shown) [Compound 1, CC(NC(=O)CC1=NOC(=N1)C2=CC(C)=C(C)S2)C=3C=CC=CC3]
Ca2+ signal (% of Carbachol) ([1]; individual replicates (Supplementary Figure 2)): -12 % of Carbachol and -15 % of Carbachol
Ca2+ signal (% of Cmp 1a) ([2]; 0.1 µM, individual replicates (Supplementary Figure 3)): 36.2 % of Cmp 1a and 58.0 % of Cmp 1a
Ca2+ signal (% of Cmp 1a) ([2]; 1 µM, individual replicates (Supplementary Figure 3)): 74.5 % of Cmp 1a and 72.2 % of Cmp 1a
Ca2+ signal (% of Cmp 1a) ([2]; 10 µM, individual replicates (Supplementary Figure 3)): 88.7 % of Cmp 1a and 74.0 % of Cmp 1a
Ca2+ signal (% of Cmp 1a) ([2]; Agonist mode, individual replicates (Supplementary Figure 1)): 94 % of Cmp 1a (2×) and 99 % of Cmp 1a
EC50 ([2]; GPR139-CHOk1, read-out: EC50, Ca2+ mobilization): 160 nM
Emax [2, 4]: 94 ± 3%
Ca2+ signal (% of Cmp 1a) ([2]; log [Compound] M -4.5, replicate experiments): 84 % of Cmp 1a and 91 % of Cmp 1a and 93 % of Cmp 1a
Ca2+ signal (% of Cmp 1a) ([2]; log [Compound] M -5.0, replicate experiments): 91 % of Cmp 1a and 83 % of Cmp 1a and 90 % of Cmp 1a
Ca2+ signal (% of Cmp 1a) ([2]; log [Compound] M -5.5, replicate experiments): 79 % of Cmp 1a
Ca2+ signal (% of Cmp 1a) ([2]; log [Compound] M -6.0, replicate experiments): 79 % of Cmp 1a and 67 % of Cmp 1a and 70 % of Cmp 1a
Ca2+ signal (% of Cmp 1a) ([2]; log [Compound] M -6.5, replicate experiments): 57 % of Cmp 1a and 52 % of Cmp 1a and 53 % of Cmp 1a
Ca2+ signal (% of Cmp 1a) ([2]; log [Compound] M -7.0, replicate experiments): 45 % of Cmp 1a and 26 % of Cmp 1a and 43 % of Cmp 1a
Ca2+ signal (% of Cmp 1a) ([2]; log [Compound] M -7.5, replicate experiments): 27 % of Cmp 1a and 24 % of Cmp 1a and 16 % of Cmp 1a
Ca2+ signal (% of Cmp 1a) ([2]; log [Compound] M -8.0, replicate experiments): 10 % of Cmp 1a and 2 % of Cmp 1a and 7.42 % of Cmp 1a
Ca2+ signal (% of Cmp 1a) ([2]; log [Compound] M -8.5, replicate experiments): 1.62 % of Cmp 1a and 6 % of Cmp 1a and 3.64 % of Cmp 1a
Ca2+ signal (% of Cmp 1a) ([2]; log [Compound] M -9.0, replicate experiments): 6 % of Cmp 1a and -1.9 % of Cmp 1a and 3.54 % of Cmp 1a
Ca2+ signal (% of Cmp 1a) ([2]; primary screen, 10 µM compound, agonist mode, three columns = independent experiments): 94 % of Cmp 1a and 99 % of Cmp 1a
Ca2+ signal (% of Cmp 1a) ([3]; individual replicates (Supplementary Figure 1)): 6.536 % of Cmp 1a and 8.894 % of Cmp 1a and 14.743 % of Cmp 1a

EC50 ([2]; Supplementary Table 2, mean ± SEM, read-out: pEC50 Ca2+ (converted)): 631 nM
Emax [2, 4]: 93 ± 11%
Compound: Cc1cc(-c2nc(CC(=O)NC(C)c3ccccc3)no2)n(C)n1 (stereo not shown) [Compound 1.16, CC(C1=CC=CC=C1)NC(CC2=NOC(C3=CC(C)=NN3C)=N2)=O]
Ca2+ signal (% of Carbachol) ([1]; individual replicates (Supplementary Figure 5)): -2 % of Carbachol and 14 % of Carbachol and 5 % of Carbachol
Ca2+ signal (% of Cmp 1a) ([2]; Agonist mode, individual replicates (Supplementary Figure 4)): 103 % of Cmp 1a and 82 % of Cmp 1a and 85 % of Cmp 1a
Ca2+ signal (% of Cmp 1a) ([2]; log [Compound] M = -4.5, individual replicate columns): 93 % of Cmp 1a and 107 % of Cmp 1a and 110 % of Cmp 1a and 60 % of Cmp 1a
Ca2+ signal (% of Cmp 1a) ([2]; log [Compound] M = -5.0, individual replicate columns): 86 % of Cmp 1a and 100 % of Cmp 1a and 83 % of Cmp 1a and 67 % of Cmp 1a
Ca2+ signal (% of Cmp 1a) ([2]; log [Compound] M = -5.5, individual replicate columns): 73 % of Cmp 1a and 90 % of Cmp 1a and 92 % of Cmp 1a and 46 % of Cmp 1a
Ca2+ signal (% of Cmp 1a) ([2]; log [Compound] M = -6.0, individual replicate columns): 52 % of Cmp 1a and 66 % of Cmp 1a and 72 % of Cmp 1a and 20 % of Cmp 1a
Ca2+ signal (% of Cmp 1a) ([2]; log [Compound] M = -6.5, individual replicate columns): 27 % of Cmp 1a and 50 % of Cmp 1a and 60 % of Cmp 1a and -0.5 % of Cmp 1a
Ca2+ signal (% of Cmp 1a) ([2]; log [Compound] M = -7.0, individual replicate columns): 9 % of Cmp 1a and 39 % of Cmp 1a and 26 % of Cmp 1a and -9.5 % of Cmp 1a
Ca2+ signal (% of Cmp 1a) ([2]; log [Compound] M = -7.5, individual replicate columns): 0.333 % of Cmp 1a and 7 % of Cmp 1a and 17 % of Cmp 1a and 1.5 % of Cmp 1a
Ca2+ signal (% of Cmp 1a) ([2]; log [Compound] M = -8.0, individual replicate columns): -3 % of Cmp 1a (2×) and -1 % of Cmp 1a and 9 % of Cmp 1a
Ca2+ signal (% of Cmp 1a) ([2]; log [Compound] M = -8.5, individual replicate columns): 0 % of Cmp 1a and -5 % of Cmp 1a and 15 % of Cmp 1a and -2.5 % of Cmp 1a
Ca2+ signal (% of Cmp 1a) ([2]; log [Compound] M = -9.0, individual replicate columns): 1.67 % of Cmp 1a and -3 % of Cmp 1a and 20 % of Cmp 1a and -7 % of Cmp 1a
Ca2+ signal (% of Cmp 1a) ([3]; individual replicates (Supplementary Figure 4)): 5 % of Cmp 1a and 13 % of Cmp 1a and -4.67 % of Cmp 1a
